Experimental data from patent US20120015957A1, “PIPERAZINYL DERIVATIVES USEFUL AS MODULATORS OF THE NEUROPEPTIDE Y2 RECEPTOR” (priority 2007, published 2012).

These compounds were tested against T1, NPY Y2 receptor (Homo sapiens, UniProt P49146) (assay: Neuropeptide Y2 radioligand binding assay ([125I]PYY, KAN-Ts cell membranes)). Conditions: membranes of KAN-Ts cells endogenously expressing Y2 receptors; [125I]PYY 80 pM; 1 h at rt; read-out: IC50 (μM), NPY Y2 binding.
T1 construct: endogenous in cells; host or cells: KAN-Ts cells (membrane preparation)
T1 sequence (P49146 1-381): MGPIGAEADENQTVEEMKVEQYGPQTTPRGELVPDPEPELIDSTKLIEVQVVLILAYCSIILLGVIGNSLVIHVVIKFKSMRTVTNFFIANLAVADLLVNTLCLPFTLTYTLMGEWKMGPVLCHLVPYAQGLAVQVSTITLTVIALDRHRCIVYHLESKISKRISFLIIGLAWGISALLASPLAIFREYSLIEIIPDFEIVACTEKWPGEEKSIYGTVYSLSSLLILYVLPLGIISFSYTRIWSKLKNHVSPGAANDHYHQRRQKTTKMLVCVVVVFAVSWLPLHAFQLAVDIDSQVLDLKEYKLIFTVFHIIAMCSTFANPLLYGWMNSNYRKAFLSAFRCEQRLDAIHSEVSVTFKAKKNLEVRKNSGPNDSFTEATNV
Protocol: KAN-Ts endogenously expressing Y2 receptors were used for the radioligand binding assay. Cells were grown to confluence on 150 cm^2 tissue culture plates, washed with phosphate-buffered saline (PBS), and scraped into 50 mL tubes. After centrifugation, the supernatant was aspirated, and the pellets frozen and stored at −80° C. Thawed pellets were homogenized with a polytron tissue grinder for 15 sec in 20 mM Tris-HCl, 5 mM EDTA. The homogenate was centrifuged at 800×g for 5 min and the collected supernatant was recentrifuged at 25000×g for 25 min. The resulting pellet was resuspended in binding buffer (20 mM HEPES, 120 mM NaCl, 0.22 mM KH2PO4, 1.3 mM CaCl2, 0.8 mM MgSO4). Membranes were incubated with [^125I]PYY (80 pM) in the presence or absence of test compound for 1 h at rt. The reaction was stopped by filtration through GF/C filter plates pre-soaked in 0.3% polyethylenimine and subsequently washed with Tris 50 mM, 5 mM EDTA buffer. Plates were dried for 1 h in a 55° C. oven, scintillation fluid was added and the radioactivity was counted in a Packard TopCount. Specific binding to the NPY receptor subtypes was determined by radioactivity that was bound in the presence of […] NPY. Each binding experiment was repeated three to eight times, each in duplicate. IC50 values (i.e. concentration of unlabelled peptide or antagonist required to compete for 50% of specific binding to the radioligand) were determined using the GraphPad Prism software (GraphPad Software Inc., San Diego Calif.) with a fit to a sigmoidal dose response curve. Apparent K values were as K=IC50/(1+C/KD), where C is concentration of the radioligand.

IC50	SMILES
0.37 µM	CC[C@H](C)c1nc(-c2ccc(N3CCN(C(C(=O)N(CC)CC)c4ccccc4)CC3)c(F)c2)no1 (stereo in doubt) [Compound 97, 2-{4-[4-(5-sec-Butyl-[1,2,4]oxadiazol-3-yl)-2-fluoro-phenyl]-piperazin-1-yl}-N,N-diethyl-2-phenyl-acetamide]
0.52 µM	CCCc1nc(-c2ccc(N3CCN(C(C(=O)N(CC)CC)c4ccccc4)CC3)c(F)c2)no1 (stereo not drawn) [Compound 68, N,N-Diethyl-2-{4-[2-fluoro-4-(5-propyl-[1,2,4]oxadiazol-3-yl)-phenyl]-piperazin-1-yl}-2-phenyl-acetamide]
0.097 µM	CCc1noc(-c2ccc(N3CCN(C(C(=O)N(CC)CC)c4ccccc4)CC3)c(F)c2)n1 (stereo not drawn) [Compound 71, N,N-Diethyl-2-{4-[4-(3-ethyl-[1,2,4]oxadiazol-5-yl)-2-fluoro-phenyl]-piperazin-1-yl}-2-phenyl-acetamide]
1 µM	CCN(CC)C(=O)C(c1ccccc1)N1CCN(c2ccc(C3=N[C@H](C(=O)OC)CO3)cc2F)CC1 (stereo partly drawn) [Compound 124, 2-{4-[4-(Diethylcarbamoyl-phenyl-methyl)-piperazin-1-yl]-3-fluorophenyl}-4,5-dihydro-oxazole-4-carboxylic acid methyl ester]
1.9 µM	CCN(CC)C(=O)C(c1ccccc1)N1CCN(c2ccc(-c3nc(C(=O)OC)co3)cc2F)CC1 (stereo not drawn) [Compound 129, 2-{4-[4-(Diethylcarbamoyl-phenyl-methyl)-piperazin-1-yl]-3-fluorophenyl}-oxazole-4-carboxylic acid methyl ester]
0.99 µM	CCN(CC)C(=O)C(c1ccccc1)N1CCN(c2ccc(-c3noc(/C(N)=N/O)n3)cc2F)CC1 (stereo not drawn) [Compound 149, N,N-Diethyl-2-(4-{2-fluoro-4-[5-(N-hydroxycarbamimidoyl)-[1,2,4]oxadiazol-3-yl]-phenyl}-piperazin-1-yl)-2-phenyl-acetamide]
0.42 µM	CCN(CC)C(=O)C(c1ccccc1)N1CCN(c2ccc(-c3nnc(C)o3)cc2F)CC1 (stereo not drawn) [Compound 150, N,N-Diethyl-2-{4-[2-fluoro-4-(5-methyl-[1,3,4]oxadiazol-2-yl)-phenyl]-piperazin-1-yl}-2-phenyl-acetamide]
> 10 µM	CCN(CC)C(=O)C(c1ccccc1)N1CCN(c2ccc(-c3noc(C(=O)O)n3)cc2F)CC1 (stereo not drawn) [Compound 151, 3-{4-[4-(Diethylcarbamoyl-phenyl-methyl)-piperazin-1-yl]-3-fluorophenyl}-[1,2,4]oxadiazole-5-carboxylic acid]
0.3 µM	CCc1nnc(-c2ccc(N3CCN(C(C(=O)N(CC)CC)c4ccccc4)CC3)c(F)c2)o1 (stereo not drawn) [Compound 152, N,N-Diethyl-2-{4-[4-(5-ethyl-[1,3,4]oxadiazol-2-yl)-2-fluoro-phenyl]-piperazin-1-yl}-2-phenyl-acetamide]
1.5 µM	CCN(CC)C(=O)C(c1ccccc1)N1CCN(c2ccc(-c3ncon3)cc2F)CC1 (stereo not drawn) [Compound 158, N,N-Diethyl-2-[4-(2-fluoro-4-[1,2,4]oxadiazol-3-yl-phenyl)-piperazin-1-yl]-2-phenyl-acetamide]
1.9 µM	CCN(CC)C(=O)C(c1ccccc1)N1CCN(c2ccc(-c3noc(=O)n3C)cc2F)CC1 (stereo not drawn) [Compound 176, N,N-Diethyl-2-{4-[2-fluoro-4-(4-methyl-5-oxo-4,5-dihydro-[1,2,4]oxadiazol-3-yl)-phenyl]-piperazin-1-yl}-2-phenyl-acetamide]
0.51 µM	CCN(CC)C(=O)C(c1ccccc1)N1CCN(c2ccc(-c3noc(SC)n3)cc2F)CC1 (stereo not drawn) [Compound 177, N,N-Diethyl-2-{4-[2-fluoro-4-(5-methylsulfanyl-[1,2,4]oxadiazol-3-yl)-phenyl]-piperazin-1-yl}-2-phenyl-acetamide]
0.15 µM	CC(C)c1noc(-c2ccc(N3CCN(C(C(=O)N(C)C)c4ccccc4)CC3)c(F)c2)n1 (stereo not drawn) [Compound 180, 2-{4-[2-Fluoro-4-(3-isopropyl-[1,2,4]oxadiazol-5-yl)-phenyl]-piperazin-1-yl}-N,N-dimethyl-2-phenyl-acetamide]

The remaining lines, values behind:

SMILES	IC50
CCc1nc(-c2ccc(N3CCN(C(C(=O)N(CC)CC)c4ccccc4)CC3)c(F)c2)no1 (stereo not drawn) [Compound 3, N,N-Diethyl-2-{4-[4-(5-ethyl-[1,2,4]oxadiazol-3-yl)-2-fluoro-phenyl]-piperazin-1-yl}-2-phenyl-acetamide]	0.24 µM
CCC(CC)c1nc(-c2ccc(N3CCN(C(C(=O)N(CC)CC)c4ccccc4)CC3)c(F)c2)no1 (stereo not drawn) [Compound 70, N,N-Diethyl-2-(4-{4-[5-(1-ethyl-propyl)-[1,2,4]oxadiazol-3-yl]-2-fluoro-phenyl}-piperazin-1-yl)-2-phenyl-acetamide]	0.48 µM
CCN(CC)C(=O)C(c1ccccc1)N1CCN(c2ccc(-c3noc(C(C)(C)C)n3)cc2F)CC1 (stereo not drawn) [Compound 75, 2-{4-[4-(5-tert-Butyl-[1,2,4]oxadiazol-3-yl)-2-fluoro-phenyl]-piperazin-1-yl}-N,N-diethyl-2-phenyl-acetamide]	0.6 µM
CCN(CC)C(=O)C(c1ccccc1)N1CCN(c2ccc(-c3noc(CC(C)(C)C)n3)cc2F)CC1 (stereo not drawn) [Compound 79, 2-(4-{4-[5-(2,2-Dimethyl-propyl)-[1,2,4]oxadiazol-3-yl]-2-fluoro-phenyl}-piperazin-1-yl)-N,N-diethyl-2-phenyl-acetamide]	6.3 µM
CCN(CC)C(=O)C(c1ccccc1)N1CCN(c2ccc(-c3nc(C(C)C)no3)cc2F)CC1 (stereo not drawn) [Compound 80, N,N-Diethyl-2-{4-[2-fluoro-4-(3-isopropyl-[1,2,4]oxadiazol-5-yl)-phenyl]-piperazin-1-yl}-2-phenyl-acetamide]	0.041 µM
CCN(CC)C(=O)C(c1ccccc1)N1CCN(c2ccc(-c3noc(C4CC4)n3)cc2F)CC1 (stereo not drawn) [Compound 88, 2-{4-[4-(5-Cyclopropyl-[1,2,4]oxadiazol-3-yl)-2-fluoro-phenyl}-piperazin-1-yl]-N,N-diethyl-2-phenyl-acetamide]	0.27 µM
CCN(CC)C(=O)C(c1ccccc1)N1CCN(c2ccc(-c3noc(C4CCC4)n3)cc2F)CC1 (stereo not drawn) [Compound 89, 2-{4-[4-(5-Cyclobutyl-[1,2,4]oxadiazol-3-yl)-2-fluoro-phenyl]-piperazin-1-yl}-N,N-diethyl-2-phenyl-acetamide]	0.85 µM
CCN(CC)C(=O)C(c1ccccc1)N1CCN(c2ccc(-c3noc(CF)n3)cc2F)CC1 (stereo not drawn) [Compound 105, N,N-Diethyl-2-{4-[2-fluoro-4-(5-fluoromethyl-[1,2,4]oxadiazol-3-yl)-phenyl]-piperazin-1-yl}-2-phenyl-acetamide]	0.16 µM
CCN(CC)C(=O)C(c1ccccc1)N1CCN(c2ccc(-c3noc(C(F)(F)F)n3)cc2F)CC1 (stereo not drawn) [Compound 118, N,N-Diethyl-2-{4-[2-fluoro-4-(5-trifluoromethyl-[1,2,4]oxadiazol-3-yl)-phenyl]-piperazin-1-yl}-2-phenyl-acetamide]	0.18 µM
CCOC(=O)c1nc(-c2ccc(N3CCN(C(C(=O)N(CC)CC)c4ccccc4)CC3)c(F)c2)no1 (stereo not drawn) [Compound 130, 3-{4-[4-(Diethylcarbamoyl-phenyl-methyl)-piperazin-1-yl]-3-fluoro-phenyl}-[1,2,4]oxadiazole-5-carboxylic acid ethyl ester]	> 10 µM
CCc1cnc(-c2ccc(N3CCN(C(C(=O)N(CC)CC)c4ccccc4)CC3)c(F)c2)o1 (stereo not drawn) [Compound 133, N,N-Diethyl-2-{4-[4-(5-ethyl-oxazol-2-yl)-2-fluoro-phenyl]-piperazin-1-yl}-2-phenyl-acetamide]	0.46 µM
CCN(CC)C(=O)C(c1ccccc1)N1CCN(c2ccc(-c3noc(C(N)=O)n3)cc2F)CC1 (stereo not drawn) [Compound 144, 3-{4-[4-(Diethylcarbamoyl-phenyl-methyl)-piperazin-1-yl]-3-fluorophenyl}-[1,2,4]oxadiazole-5-carboxylic acid amide]	1.1 µM
CCN(CC)C(=O)C(c1ccccc1)N1CCN(c2ccc(-c3noc(C#N)n3)cc2F)CC1 (stereo not drawn) [Compound 147, 2-{4-[4-(5-Cyano-[1,2,4]oxadiazol-3-yl)-2-fluoro-phenyl]-piperazin-1-yl}-N,N-diethyl-2-phenyl-acetamide]	4.1 µM
CCN(CC)C(=O)C(c1ccccc1)N1CCN(c2ccc(-c3nnc(C(C)C)o3)cc2F)CC1 (stereo not drawn) [Compound 154, N,N-Diethyl-2-{4-[2-fluoro-4-(5-isopropyl-[1,3,4]oxadiazol-2-yl)-phenyl]-piperazin-1-yl}-2-phenyl-acetamide]	0.22 µM
